For this data set, the system named is GENE-TOX genotoxicity assays, various organisms and cells. Kind of data set: GENE-TOX mutagenicity studies. The note with it: for call: Assay Type: In vivo carcinogenicity studies.
Where [1] appears, read: Species/Cell Type: Neurospora crassa, Assay Type: Aneuploidy, chromosome aberrations, Assay Code: NEN-, Evaluation Type: Evaluation A (Pre-1980).
Where [2] appears, read: Species/Cell Type: Mammalian polychromatic erythrocytes, Assay Type: Micronucleus test, chromosome aberrations, Assay Code: MNT+, Evaluation Type: Evaluation B (Post-1980).
Setting [3] is: Species/Cell Type: Fischer rat embryo (RLV/1706) cells, Assay Type: Cell transformation, viral enhanced, Assay Code: CTR-, Evaluation Type: Evaluation A (Pre-1980).
The mark [4] stands for this setting: Species/Cell Type: Bacillus subtilis (H17 vs M45), Assay Type: Rec-assay, spot test, DNA effects (bacterial DNA repair), Assay Code: REWT, Evaluation Type: Evaluation A (Pre-1980).
Setting [5] is: Species/Cell Type: Rodents, Sex: Male, Assay Type: Dominant lethal test, Assay Code: DLT-, Evaluation Type: Evaluation A (Pre-1980).
Where [6] appears, read: Species/Cell Type: Salmonella typhimurium (one or more of the five standard strains: TA98, TA100, TA1535, TA1537, and TA1538), Assay Type: Histidine reverse gene mutation, Ames assay, Assay Code: SAL-, Evaluation Type: Evaluation A (Pre-1980).
The mark [7] stands for this setting: Species/Cell Type: Saccharomyces cerevisiae, Assay Type: Reverse gene mutation, Assay Code: YER+, Evaluation Type: Evaluation A (Pre-1980).
Setting [8] is: Species/Cell Type: Salmonella typhimurium (one or more of the five standard strains: TA98, TA100, TA1535, TA1537, and TA1538), Assay Type: Histidine reverse gene mutation, Ames assay, Assay Code: SAL+*, Activation: With metabolic activation, Evaluation Type: Evaluation A (Pre-1980).
The mark [9] stands for this setting: Species/Cell Type: Salmonella typhimurium (one or more of the five standard strains: TA98, TA100, TA1535, TA1537, and TA1538), Assay Type: Histidine reverse gene mutation, Ames assay, Assay Code: SALT, Evaluation Type: Evaluation A (Pre-1980).
The mark [10] stands for this setting: Species/Cell Type: Saccharomyces cerevisiae, Assay Type: Mitotic recombination or gene conversion, Assay Code: YEC+, Evaluation Type: Evaluation A (Pre-1980).

This passage reports mutagenic call and call results from PubChem BioAssay AID1259408 (Genetic Toxicology Data Bank (GENE-TOX), 2018).

Activity calls are given as the source filed them. How the calls were made is not given here.

For the compound `Oc1ccc2ccccc2c1N=Nc1ccc(N=Nc2ccccc2)cc1`, the mutagenic call (Species/Cell Type: Bacillus subtilis (H17 vs M45T), Assay Type: Rec-assay, spot test, DNA effects (bacterial DNA repair), Assay Code: REXT, Evaluation Type: Evaluation A (Pre-1980)) is “no conclusion”.
For `C[C@@H]1[C@H](O)[C@@H](C)/C=C/C=C/CC/C=C/C=C/C=C/C=C/C(O[C@H]2O[C@H](C)[C@@H](O)[C@H](N)[C@@H]2O)CC2O[C@](O)(CC(O)C(O)CCC(O)CC(O)CC(O)CC(=O)O[C@H]1C)CC(O)C2C(=O)O` (some centres not stated), the mutagenic call under setting [1] is “inactive; negative”.
For `CC(=O)c1ccc(S(=O)(=O)NC(=O)NC2CCCCC2)cc1`, for the setting “Species/Cell Type: Nonhuman, Assay Type: Sister-chromatid exchange (SCE) in vivo, Assay Code: SC3T, Evaluation Type: Evaluation B (Post-1980)”, the mutagenic call was “no conclusion”.
Turning to `COC(=O)Nc1ncc(-c2ccc(OC)cc2)[nH]1`, the mutagenic call (Species/Cell Type: Salmonella typhimurium, Assay Type: Forward and reverse gene mutation, host-mediated assay, Assay Code: HMA+, Evaluation Type: Evaluation A (Pre-1980)) is “active; positive”.
Consider `N#CCC(=O)N/N=C/c1c[n+]([O-])c2ccccc2[n+]1[O-]`, for which the mutagenic call under setting [2] was “active; positive”.
`CCCCCc1cc(O)c2c(c1)OC(C)(C)c1ccc(C)cc1-2`: the mutagenic call was “inactive; negative” under setting [3]; “active; positive” (Species/Cell Type: Human lymphocytes, Assay Type: Sister-chromatid exchange (SCE) in vivo, Assay Code: SCY+, Evaluation Type: Evaluation B (Post-1980)); “active; positive” under setting [2]; “active; positive” (Species/Cell Type: Mouse, Sex: Male, Assay Type: Sperm morphology, Assay Code: SPI+, Evaluation Type: Evaluation A (Pre-1980)).
For `O=S(=O)(O)c1ccc(N=C2C=CC(=C(c3ccc(Nc4ccc(S(=O)(=O)O)cc4)cc3)c3ccc(Nc4ccc(S(=O)(=O)O)cc4)cc3)C=C2)cc1`, the mutagenic call under setting [4] is “no conclusion”.
For the compound `CN(C)CCCN1c2ccccc2CCc2ccccc21`, the mutagenic call is “no conclusion” (Species/Cell Type: Human, Assay Type: Sister-chromatid exchange (SCE) in vitro, Assay Code: SC1T, Evaluation Type: Evaluation B (Post-1980)) and “inactive; negative” under setting [5].
Turning to `CN(C)CCC(=O)c1ccc2c(c1)OCO2`, the mutagenic call (Species/Cell Type: Salmonella typhimurium, Assay Type: Forward and reverse gene mutation, host-mediated assay, Assay Code: HMA-, Evaluation Type: Evaluation A (Pre-1980)) was “inactive; negative”.
As for `CNC(=O)Oc1cccc2c1OC(C)(C)C2`, the mutagenic call runs as follows: under setting [4], “no conclusion”; (Species/Cell Type: Drosophila melanogaster, Assay Type: Sex-linked recessive lethal gene mutation, Assay Code: SRL-, Evaluation Type: Evaluation A (Pre-1980)) “inactive; negative”; (Species/Cell Type: Escherichia coli WP2 UVRA, Assay Type: Tryptophan reverse gene mutation, Assay Code: WPU-*, Activation: With metabolic activation, Evaluation Type: Evaluation A (Pre-1980)) “inactive; negative”; (Species/Cell Type: Escherichia coli polA (W3119 vs P3478), Assay Type: Rec-assay, DNA effects (bacterial DNA repair), Assay Code: RE1T, Evaluation Type: Evaluation A (Pre-1980)) “no conclusion”; (Species/Cell Type: Hordeum vulgare (barley), Assay Type: Chromosome aberrations, Assay Code: HOC+D, Dose Response: With dose response, Evaluation Type: Evaluation A (Pre-1980)) “active; positive”; (Species/Cell Type: Human diploid fibroblasts, Assay Type: Unscheduled DNA synthesis (UDS) in vitro, DNA effects, Assay Code: UDH-, Evaluation Type: Evaluation A (Pre-1980)) “inactive; negative”. Moreover, the mutagenic call is, setting by setting: (Species/Cell Type: Saccharomyces cerevisiae, Assay Type: Mitotic recombination or gene conversion, Assay Code: YEH-, Evaluation Type: Evaluation A (Pre-1980)) “inactive; negative”; under setting [6], “inactive; negative”.
Turning to `Clc1cc(Cl)c(OCC#CI)cc1Cl`, the mutagenic call under setting [1] was “inactive; negative”.
On to `c1cc2ccc3cccc4ccc(c1)c2c34`, for which the mutagenic call (Species/Cell Type: Chinese hamster lung (V79) cells, Assay Type: Forward gene mutation at the HPRT or ouabain locus, Assay Code: V79-*, Activation: With metabolic activation, Evaluation Type: Evaluation A (Pre-1980)) was “inactive; negative”; the mutagenic call (Species/Cell Type: Chinese hamster lung (V79) cells, Assay Type: Forward gene mutation, host-mediated assay, Assay Code: HMG-, Evaluation Type: Evaluation A (Pre-1980)) was “inactive; negative”; the mutagenic call under setting [3] is “inactive; negative”; the mutagenic call (Species/Cell Type: Human diploid fibroblasts, Assay Type: Unscheduled DNA synthesis (UDS) in vitro, DNA effects, Assay Code: UDH-*, Activation: With metabolic activation, Evaluation Type: Evaluation A (Pre-1980)) was “inactive; negative”; the mutagenic call (Species/Cell Type: Mammalian polychromatic erythrocytes, Assay Type: Micronucleus test, chromosome aberrations, Assay Code: MNTT, Evaluation Type: Evaluation A (Pre-1980)) is “no conclusion”; the mutagenic call (Species/Cell Type: Mouse (BALB/c-3T3) cells, Assay Type: Cell transformation, Assay Code: CTB-, Evaluation Type: Evaluation A (Pre-1980)) is “inactive; negative”. Further, the mutagenic call is “inactive; negative” (Species/Cell Type: Mouse embryo (AKR/ME) cells, Assay Type: Cell transformation, Assay Code: CTK-, Evaluation Type: Evaluation A (Pre-1980)); “inactive; negative” (Species/Cell Type: Mouse, Sex: Male, Assay Type: Sperm morphology, Assay Code: SPI-, Evaluation Type: Evaluation A (Pre-1980)); “inactive; negative” (Species/Cell Type: Nonhuman, Assay Type: Chromosome aberrations in vitro, Assay Code: CY&-, Evaluation Type: Evaluation A (Pre-1980)); “active; positive” (Species/Cell Type: Nonhuman, Assay Type: Sister-chromatid exchange (SCE) in vitro, Assay Code: SC2+, Evaluation Type: Evaluation B (Post-1980)); “no conclusion” (Species/Cell Type: Nonhuman, Assay Type: Sister-chromatid exchange (SCE) in vitro, Assay Code: SC2T, Evaluation Type: Evaluation A (Pre-1980)); “inactive; negative” (Species/Cell Type: Nonhuman, Assay Type: Sister-chromatid exchange (SCE) in vivo, Assay Code: SC3-, Evaluation Type: Evaluation A (Pre-1980)). The mutagenic call under setting [6] was “inactive; negative”; the mutagenic call (Species/Cell Type: Syrian hamster embryo (SHE) cells, Assay Type: Cell transformation, clonal assay, Assay Code: CTC-, Evaluation Type: Evaluation A (Pre-1980)) was “inactive; negative”; the mutagenic call (Species/Cell Type: Tradescantia species, Assay Type: Gene mutation, Assay Code: TRM+D, Dose Response: With dose response, Evaluation Type: Evaluation A (Pre-1980)) was “active; positive”. For the same compound, under “Species/Cell Type: Nonhuman, Assay Code: CCGT, Evaluation Type: Evaluation A (Pre-1980)”, the call is “no conclusion”.
Turning to `CCCCCCCCCCCCCC(=O)N(C)N=O`, the mutagenic call under setting [7] was “active; positive”.
On to `O=C1CCc2ccc3c(ccc4ccccc43)c21`, for which the mutagenic call under setting [8] was “active; positive”.
Turning to `CN1CCC=C(C(=O)O)C1`, the mutagenic call (Species/Cell Type: Mammalian polychromatic erythrocytes, Assay Type: Micronucleus test, chromosome aberrations, Assay Code: MNTT, Evaluation Type: Evaluation B (Post-1980)) is on record as “no conclusion”.
Take `NCCc1c[nH]c2ccc(O)cc12` (tested in a mixture with another compound): the mutagenic call is listed as “no conclusion” (Species/Cell Type: Drosophila melanogaster, Assay Type: Aneuploidy, whole sex chromosome loss, chromosome aberrations, Assay Code: DACTM, Evaluation Type: Evaluation A (Pre-1980)) and “no conclusion” (Species/Cell Type: Drosophila melanogaster, Sex: Male, Assay Type: Heritable translocation test, chromosome aberrations, Assay Code: DHTT, Evaluation Type: Evaluation A (Pre-1980)).
In the case of `COc1c(Cl)ccc2oc3cc4c(c(OC)c3c(=O)c12)[C@@H]1C=CO[C@@H]1O4`, the mutagenic call under setting [8] was “active; positive”.
Consider `[N-]=[N+]=Nc1ccc2c(c1)Cc1ccccc1-2`, for which, for the setting “Species/Cell Type: Mouse (C3H/10T1/2) cells, Assay Type: Cell transformation, Assay Code: CTH-, Evaluation Type: Evaluation A (Pre-1980)”, the mutagenic call is “inactive; negative”.
Consider `Cc1cc(C(=C2C=CC(=Nc3ccc(S(=O)(=O)O)cc3)C=C2)c2ccc(Nc3ccc(S(=O)(=O)O)cc3)cc2)cc(S(=O)(=O)O)c1N`, for which, under setting [4], the mutagenic call is given as “no conclusion”.
As for `C[C@]12CCC[C@H](O1)c1c(cc3c(c1O)C(=O)c1c(O)cc(O)cc1C3=O)O2`, the mutagenic call under setting [9] was “no conclusion”.
As to `CCCCCCC(=O)N(C)N=O`, under setting [7], the mutagenic call was “active; positive”.
Turning to `O=NN(CCCl)C(=O)NCCO`, the mutagenic call is, setting by setting: (Species/Cell Type: Drosophila melanogaster, Assay Type: Sex-linked recessive lethal gene mutation, Assay Code: SRL+, Evaluation Type: Evaluation A (Pre-1980)) “active; positive”; under setting [10], “active; positive”.
For `COc1ccccc1[N+](=O)[O-]`, the mutagenic call under setting [9] was “no conclusion”.
As to `c1cc[n+]2c(c1)-c1cccc[n+]1CC2`, the mutagenic call (Species/Cell Type: Drosophila melanogaster, Assay Type: Sex-linked recessive lethal gene mutation, Assay Code: SRLT, Evaluation Type: Evaluation A (Pre-1980)) is “no conclusion”; the mutagenic call under setting [5] was “inactive; negative”; the mutagenic call under setting [10] was “active; positive”.
Regarding `Nc1ncnc2n[nH]nc12`, the mutagenic call (Species/Cell Type: Vicia faba, Assay Type: Chromosome aberrations, Assay Code: VIC+, Evaluation Type: Evaluation A (Pre-1980)) is “active; positive”.
`C=C(Cl)CSC(=S)N(CC)CC`: the call (Species/Cell Type: Nonhuman, Assay Code: CCG+, Evaluation Type: Evaluation A (Pre-1980)) was “active; positive”. Besides, the mutagenic call under setting [8] is “active; positive”.
